According to BigSolDB 2.1:

Cc1cccc([N+](=O)[O-])c1N
solubility (mole fraction)
Settings | in 1,4-dioxane | in acetone | in acetonitrile | in cyclohexane | in ethanol | in ethyl acetate | in isopropanol | in methanol | in n-propanol | in toluene
278.15 K | – | 0.113 | 0.0418 | – | 0.0102 | 0.0841 | 0.0086 | 0.00739 | 0.0108 | 0.0237
280.65 K | – | 0.122 | 0.0466 | – | 0.0112 | 0.0924 | 0.00945 | 0.00829 | 0.012 | 0.0267
283.15 K | 0.18 | 0.132 | 0.0529 | 0.00103 | 0.0125 | 0.101 | 0.0105 | 0.00916 | 0.0133 | 0.0301
285.65 K | 0.19 | 0.142 | 0.0589 | 0.00118 | 0.0139 | 0.11 | 0.0119 | 0.0102 | 0.0149 | 0.0336
288.15 K | 0.201 | 0.153 | 0.067 | 0.00136 | 0.0154 | 0.121 | 0.0133 | 0.0113 | 0.0165 | 0.0375
290.65 K | 0.211 | 0.165 | 0.0753 | 0.00158 | 0.017 | 0.131 | 0.0147 | 0.0124 | 0.0183 | 0.0417
293.15 K | 0.223 | 0.177 | 0.0844 | 0.00181 | 0.019 | 0.142 | 0.0163 | 0.014 | 0.0203 | 0.0469
295.65 K | 0.236 | 0.19 | 0.0954 | 0.00211 | 0.021 | 0.155 | 0.0183 | 0.0155 | 0.0225 | 0.0521
298.15 K | 0.249 | 0.203 | 0.106 | 0.00242 | 0.0233 | 0.168 | 0.0202 | 0.0172 | 0.0248 | 0.0581
300.65 K | 0.262 | 0.217 | 0.119 | 0.00279 | 0.0256 | 0.182 | 0.0225 | 0.0192 | 0.0275 | 0.0647
303.15 K | 0.277 | 0.233 | 0.133 | 0.00318 | 0.0284 | 0.196 | 0.0249 | 0.0212 | 0.0305 | 0.0719
305.65 K | 0.291 | 0.249 | 0.148 | 0.00369 | 0.0314 | 0.212 | 0.0277 | 0.0234 | 0.0336 | 0.0804
308.15 K | 0.306 | 0.265 | 0.165 | 0.00424 | 0.0346 | 0.228 | 0.0306 | 0.0261 | 0.0371 | 0.0893
310.65 K | 0.323 | 0.283 | 0.183 | 0.00489 | 0.0381 | 0.246 | 0.0339 | 0.0288 | 0.041 | 0.0993
313.15 K | 0.339 | 0.301 | 0.203 | 0.00562 | 0.042 | 0.265 | 0.0376 | 0.032 | 0.0451 | 0.11
